Laboratory results reported in patent US20070128217A1 (priority 2003, published 2007).

Experiments:
[1] = system: rabbit serum obtained by immunizing a rabbit with the SARS-CoV strain Frankfurt 1; type: binding; design: Binding of a rabbit serum to linear peptides / Binding of a rabbit serum to looped peptides / Rabbit serum linear peptides / Rabbit serum looped peptides / Binding of a rabbit serum to linear peptides of protein N of SARS-CoV Urbani (Rabbit serum linear peptides) / Binding of a rabbit serum to looped/cyclic peptides of protein N of SARS-CoV Urbani (Rabbit serum looped peptides): unit not given here
[2] = system: antibodies in sera from SARS patients (sera 1a, 1b, 2, 6, 37, 62, London, SARS-yellow, SARS-green); type: binding, human; design: Binding of serum 6 to linear peptides of protein X1 of SARS-CoV Urbani / Binding of serum 37 to linear peptides of protein X1 of SARS-CoV Urbani / Binding of serum 6 to looped/cyclic peptide (PEPSCAN-ELISA) / Binding of serum 37 to looped/cyclic peptide (PEPSCAN-ELISA) / Binding of serum 37 to looped/cyclic peptides of protein X1 of SARS-CoV Urbani / Binding of serum 6 to linear peptides of protein X2 / Binding of serum 37 to linear peptides of protein X2 / Binding of serum 37 to looped/cyclic peptides of protein X2 of SARS-CoV Urbani / Binding of serum 6 to linear peptides of protein M of SARS-CoV Urbani / Binding of serum 37 to linear peptides of protein M of SARS-CoV Urbani / Binding of serum 6 to looped/cyclic peptides of protein M of SARS-CoV Urbani / Binding of serum 37 to looped/cyclic peptides of protein M of SARS-CoV Urbani / Binding of serum 6 to linear peptides of protein X3 of SARS-CoV Urbani / Binding of serum 37 to linear peptides of protein X3 of SARS-CoV Urbani / Binding of serum 37 to looped/cyclic peptides of protein X3 of SARS-CoV Urbani / Binding of serum 6 to linear peptides of protein X4 of SARS-CoV Urbani / Binding of serum 37 to linear peptides of protein X4 of SARS-CoV Urbani / Binding of serum 37 to looped/cyclic peptides of protein X4 of SARS-CoV Urbani / Binding of serum 6 to linear peptides of protein X5 of SARS-CoV Urbani / Binding of serum 37 to linear peptides of protein X5 of SARS-CoV Urbani / Binding of serum 37 to looped/cyclic peptides of protein X5 of SARS-CoV Urbani / Binding of serum 6 to linear peptides of protein N of SARS-CoV Urbani / Binding of serum 37 to linear peptides of protein N of SARS-CoV Urbani / Binding of serum 6 to linear peptide (PEPSCAN-ELISA) / Binding of serum 1a to looped/cyclic peptides of protein N of SARS-CoV Urbani / Binding of serum 1b to looped/cyclic peptides of protein N of SARS-CoV Urbani / Binding of serum 2 to looped/cyclic peptides of protein N of SARS-CoV Urbani / Binding of serum 6 to looped/cyclic peptides of protein N of SARS-CoV Urbani / Binding of serum 37 to looped/cyclic peptides of protein N of SARS-CoV Urbani / Binding of serum 62 to looped/cyclic peptides of protein N of SARS-CoV Urbani / Binding of serum London to looped/cyclic peptides of protein N of SARS-CoV Urbani / Binding of serum SARS-green to looped/cyclic peptides of protein N of SARS-CoV Urbani: unit not given here
[3] = system: control sera (pooled serum of ten healthy LUMC hospital workers; commercial negative donor pooled serum from the Dutch bloodbank); type: binding, human; design: Binding of Control serum LUMC to linear peptides / Binding of Control serum Blood-bank to linear peptides / Binding of Control serum LUMC to looped peptides / Binding of Control Serum Blood-Bank to Looped peptides / Binding of Control serum LUMC to linear peptides of the protein M of SARS-CoV Urbani / Binding of Control serum Blood-bank to linear peptides of the protein M of SARS-CoV Urbani / Binding of Control serum LUMC to looped peptides of the protein M of SARS-CoV Urbani / Binding of Control Serum Blood-Bank to Looped peptides of the protein M of SARS-CoV Urbani: unit not given here
[4] = system: recombinant human anti-SARS-CoV antibody 03-018; type: binding; design: Binding of antibody 03-018 to linear peptides of the N protein of SARS-CoV Urbani / Binding of antibody 03-018 to looped/cyclic peptides of the N protein of SARS-CoV Urbani: unit not given here

Sequence: GALNTPKDHIGTRNP
- Binding of a rabbit serum to linear peptides of protein N of SARS-CoV Urbani (Rabbit serum linear peptides) [1]: 0.2
- Binding of a rabbit serum to looped/cyclic peptides of protein N of SARS-CoV Urbani (Rabbit serum looped peptides) [1]: 0.0
- Binding of serum 1a to linear peptides of protein N of SARS-CoV Urbani [2]: 0.3
- Binding of serum 1a to looped/cyclic peptides of protein N of SARS-CoV Urbani [2]: 0.2
- Binding of serum 1b to linear peptides of protein N of SARS-CoV Urbani [2]: 0.1
- Binding of serum 1b to looped/cyclic peptides of protein N of SARS-CoV Urbani [2]: 0.1
- Binding of serum 2 to linear peptides of protein N of SARS-CoV Urbani [2]: 0.2
- Binding of serum 2 to looped/cyclic peptides of protein N of SARS-CoV Urbani [2]: 0.5
- Binding of serum 6 to linear peptides of protein N of SARS-CoV Urbani [2]: 0.2
- Binding of serum 6 to looped/cyclic peptides of protein N of SARS-CoV Urbani [2]: 0.2
- Binding of serum 37 to linear peptides of protein N of SARS-CoV Urbani [2]: 0.7
- Binding of serum 37 to looped/cyclic peptides of protein N of SARS-CoV Urbani [2]: 0.5
- Binding of serum 62 to linear peptides of protein N of SARS-CoV Urbani [2]: 0.7
- Binding of serum 62 to looped/cyclic peptides of protein N of SARS-CoV Urbani [2]: 0.3
- Binding of serum London to linear peptides of protein N of SARS-CoV Urbani [2]: 0.5
- Binding of serum London to looped/cyclic peptides of protein N of SARS-CoV Urbani [2]: 0.4
- Binding of serum SARS-green to linear peptides of protein N of SARS-CoV Urbani [2]: 0.4
- Binding of serum SARS-green to looped/cyclic peptides of protein N of SARS-CoV Urbani [2]: 0.2
- Binding of serum SARS-yellow to linear peptides of protein N of SARS-CoV Urbani [2]: 0.7
- Binding of serum SARS-yellow to looped/cyclic peptides of protein N of SARS-CoV Urbani [2]: 0.2
- Binding of Control Serum Blood-Bank to Looped peptides [3]: 0.5
- Binding of Control serum Blood-bank to linear peptides [3]: 0.7
- Binding of Control serum LUMC to linear peptides [3]: 0.6
- Binding of Control serum LUMC to looped peptides [3]: 0.4
- Binding of antibody 03-018 to linear peptides of the N protein of SARS-CoV Urbani [4]: 0.1
- Binding of antibody 03-018 to looped/cyclic peptides of the N protein of SARS-CoV Urbani [4]: 0.2

Sequence: GDGKMKELSPRWYFY
- Binding of a rabbit serum to linear peptides of protein N of SARS-CoV Urbani (Rabbit serum linear peptides) [1]: 0.2
- Binding of a rabbit serum to looped/cyclic peptides of protein N of SARS-CoV Urbani (Rabbit serum looped peptides) [1]: 0.6
- Binding of serum 1a to linear peptides of protein N of SARS-CoV Urbani [2]: 0.2
- Binding of serum 1a to looped/cyclic peptides of protein N of SARS-CoV Urbani [2]: 0.4
- Binding of serum 1b to linear peptides of protein N of SARS-CoV Urbani [2]: 0.1
- Binding of serum 1b to looped/cyclic peptides of protein N of SARS-CoV Urbani [2]: 0.3
- Binding of serum 2 to linear peptides of protein N of SARS-CoV Urbani [2]: 0.2
- Binding of serum 2 to looped/cyclic peptides of protein N of SARS-CoV Urbani [2]: 0.6
- Binding of serum 6 to linear peptides of protein N of SARS-CoV Urbani [2]: 0.1
- Binding of serum 6 to looped/cyclic peptides of protein N of SARS-CoV Urbani [2]: 0.3
- Binding of serum 37 to linear peptides of protein N of SARS-CoV Urbani [2]: 0.5
- Binding of serum 37 to looped/cyclic peptides of protein N of SARS-CoV Urbani [2]: 0.7
- Binding of serum 62 to linear peptides of protein N of SARS-CoV Urbani [2]: 0.6
- Binding of serum 62 to looped/cyclic peptides of protein N of SARS-CoV Urbani [2]: 0.6
- Binding of serum London to linear peptides of protein N of SARS-CoV Urbani [2]: 0.4
- Binding of serum London to looped/cyclic peptides of protein N of SARS-CoV Urbani [2]: 0.5
- Binding of serum SARS-green to linear peptides of protein N of SARS-CoV Urbani [2]: 0.3
- Binding of serum SARS-green to looped/cyclic peptides of protein N of SARS-CoV Urbani [2]: 0.5
- Binding of serum SARS-yellow to linear peptides of protein N of SARS-CoV Urbani [2]: 0.6
- Binding of serum SARS-yellow to looped/cyclic peptides of protein N of SARS-CoV Urbani [2]: 0.7
- Binding of Control Serum Blood-Bank to Looped peptides [3]: 0.7
- Binding of Control serum Blood-bank to linear peptides [3]: 0.6
- Binding of Control serum LUMC to linear peptides [3]: 0.6
- Binding of Control serum LUMC to looped peptides [3]: 0.8
- Binding of antibody 03-018 to linear peptides of the N protein of SARS-CoV Urbani [4]: 0.1
- Binding of antibody 03-018 to looped/cyclic peptides of the N protein of SARS-CoV Urbani [4]: 0.2

Sequence: GDQDLIRQGTDYKHW
- Binding of a rabbit serum to linear peptides of protein N of SARS-CoV Urbani (Rabbit serum linear peptides) [1]: 0.1
- Binding of a rabbit serum to looped/cyclic peptides of protein N of SARS-CoV Urbani (Rabbit serum looped peptides) [1]: 0.5
- Binding of serum 1a to linear peptide (PEPSCAN-ELISA) [2]: 0.2
- Binding of serum 1a to looped/cyclic peptides of protein N of SARS-CoV Urbani [2]: 0.4
- Binding of serum 1b to linear peptide (PEPSCAN-ELISA) [2]: 0.1
- Binding of serum 1b to looped/cyclic peptides of protein N of SARS-CoV Urbani [2]: 0.2
- Binding of serum 2 to linear peptide (PEPSCAN-ELISA) [2]: 0.2
- Binding of serum 2 to looped/cyclic peptides of protein N of SARS-CoV Urbani [2]: 0.4
- Binding of serum 6 to linear peptide (PEPSCAN-ELISA) [2]: 0.3
- Binding of serum 6 to looped/cyclic peptides of protein N of SARS-CoV Urbani [2]: 0.3
- Binding of serum 37 to linear peptide (PEPSCAN-ELISA) [2]: 0.6
- Binding of serum 37 to looped/cyclic peptides of protein N of SARS-CoV Urbani [2]: 0.6
- Binding of serum 62 to linear peptide (PEPSCAN-ELISA) [2]: 0.7
- Binding of serum 62 to looped/cyclic peptides of protein N of SARS-CoV Urbani [2]: 0.5
- Binding of serum London to linear peptide (PEPSCAN-ELISA) [2]: 0.9
- Binding of serum London to looped/cyclic peptides of protein N of SARS-CoV Urbani [2]: 0.4
- Binding of serum SARS-green to linear peptide (PEPSCAN-ELISA) [2]: 0.5
- Binding of serum SARS-green to looped/cyclic peptides of protein N of SARS-CoV Urbani [2]: 0.4
- Binding of serum SARS-yellow to linear peptide (PEPSCAN-ELISA) [2]: 0.7
- Binding of serum SARS-yellow to looped/cyclic peptides of protein N of SARS-CoV Urbani [2]: 0.3
- Binding of Control Serum Blood-Bank to Looped peptides [3]: 0.6
- Binding of Control serum Blood-bank to linear peptides [3]: 0.9
- Binding of Control serum LUMC to linear peptides [3]: 0.8
- Binding of Control serum LUMC to looped peptides [3]: 0.5
- Binding of antibody 03-018 to linear peptides of the N protein of SARS-CoV Urbani [4]: 0.1
- Binding of antibody 03-018 to looped/cyclic peptides of the N protein of SARS-CoV Urbani [4]: 0.2

Sequence: GETALALLLLDRLNQ
- Binding of a rabbit serum to linear peptides of protein N of SARS-CoV Urbani (Rabbit serum linear peptides) [1]: 0.2
- Binding of a rabbit serum to looped/cyclic peptides of protein N of SARS-CoV Urbani (Rabbit serum looped peptides) [1]: 0.6
- Binding of serum 1a to linear peptide (PEPSCAN-ELISA) [2]: 0.2
- Binding of serum 1a to looped/cyclic peptides of protein N of SARS-CoV Urbani [2]: 0.4
- Binding of serum 1b to linear peptide (PEPSCAN-ELISA) [2]: 0.1
- Binding of serum 1b to looped/cyclic peptides of protein N of SARS-CoV Urbani [2]: 0.2
- Binding of serum 2 to linear peptide (PEPSCAN-ELISA) [2]: 0.2
- Binding of serum 2 to looped/cyclic peptides of protein N of SARS-CoV Urbani [2]: 0.4
- Binding of serum 6 to linear peptide (PEPSCAN-ELISA) [2]: 0.1
- Binding of serum 6 to looped/cyclic peptides of protein N of SARS-CoV Urbani [2]: 0.2
- Binding of serum 37 to linear peptide (PEPSCAN-ELISA) [2]: 0.5
- Binding of serum 37 to looped/cyclic peptides of protein N of SARS-CoV Urbani [2]: 0.7
- Binding of serum 62 to linear peptide (PEPSCAN-ELISA) [2]: 0.6
- Binding of serum 62 to looped/cyclic peptides of protein N of SARS-CoV Urbani [2]: 0.7
- Binding of serum London to linear peptide (PEPSCAN-ELISA) [2]: 0.5
- Binding of serum London to looped/cyclic peptides of protein N of SARS-CoV Urbani [2]: 0.5
- Binding of serum SARS-green to linear peptide (PEPSCAN-ELISA) [2]: 0.2
- Binding of serum SARS-green to looped/cyclic peptides of protein N of SARS-CoV Urbani [2]: 0.3
- Binding of serum SARS-yellow to linear peptide (PEPSCAN-ELISA) [2]: 0.6
- Binding of serum SARS-yellow to looped/cyclic peptides of protein N of SARS-CoV Urbani [2]: 0.6
- Binding of Control Serum Blood-Bank to Looped peptides [3]: 0.7
- Binding of Control serum Blood-bank to linear peptides [3]: 0.6
- Binding of Control serum LUMC to linear peptides [3]: 0.6
- Binding of Control serum LUMC to looped peptides [3]: 0.7
- Binding of antibody 03-018 to linear peptides of the N protein of SARS-CoV Urbani [4]: 0.1
- Binding of antibody 03-018 to looped/cyclic peptides of the N protein of SARS-CoV Urbani [4]: 0.3
